In patent US8815859B2, “Substituted pyrazin-2-ones and substituted 5,6,7,8-tetrahydroquinoxalin-2-ones and methods of use thereof” (Merck Patent GmbH, priority 2008, dated 2014):

How the values were obtained:
INS-1 cells = test: Insulin secretion assay in INS-1 cells (glucose at 4.2 mM); assay type: cell-based, rat; conditions: glucose 4.2 mM, 1 h incubation, control = glucose 4.2 mM; for Insulin secretion, % of ctrl at 10 μM of cpd: 10 μM of compound; for Insulin secretion, % of ctrl at 50 μM of cpd: 50 μM of compound
Protocol: INS-1 cells were cultured in complete medium, RPMI1640 containing 1 mM sodium pyruvate, 50 μM 2-mercaptoethanol, 2 mM glutamine, 10 mM HEPES, 100 IU/mL penicillin, and 100 μg/mL streptomycin (CM), supplemented with 10 mM glucose, and 10% (vol/vol) heat-inactivated fetal calf serum (FCS), as described by Asfari et al. (Endocrinology 130: 167-178, 1992).
INS-1 cells were plated and cultured in 48-well plates. After 2 days of culture, the medium was removed and cells were cultured for 24 h with a medium change to 5 mM glucose, 1% FCS. The cells were then washed with Krebs-Ringer Bicarbonate HEPES buffer (KRBH; 135 mM NaCl; 3.6 mM KCl; 5 mM NaHCO3; 0.5 mM NaH2PO4; 0.5 mM MgCl2; 1.5 mM CaCl2 and 10 mM HEPES; pH 7.4) 0,1% BSA containing 2.8 mM glucose and preincubated for 30 min at 37° C. in the same buffer. The cells were then washed twice and incubated for 1 h in KRBH 0.1% BSA containing 4.2 mM glucose and different concentrations of the tested molecule. Insulin concentration in the collected supernatants was measured with ELISA using rat insulin antibody (Insulin Rat Elit PLUS, cat. ref 10-1145-01).
Insulin secretion results are expressed in % of control (glucose 4.2 mM).
Insulin Secretion in INS-1 Cells (Glucose at 4.2 mM)

Compound	melting point [°C]	Insulin secretion, % of ctrl at 10 μM of cpd (INS-1 cells)	Insulin secretion, % of ctrl at 50 μM of cpd (INS-1 cells)
CCn1ccnc(-c2ccc(S(C)(=O)=O)cc2)c1=O [Example 5-2, 1-ethyl-3-[4-(methylsulfonyl)phenyl]pyrazin-2(114)-one]	108 to 110		
CCn1ccnc(-c2ccc3c(c2)OCO3)c1=O [Example 5-5, 3-(1,3-benzodioxol-5-yl)-1-ethylpyrazin-2(1H)-one]		158 % of ctrl	204 % of ctrl
CCn1ccnc(-c2ccc(C(=O)O)cc2)c1=O [Example 5-15, 4-(4-ethyl-3-oxo-3,4-dihydropyrazin-2-yl)benzoic acid]	170		
CCn1ccnc(-c2ccc3cc[nH]c3c2)c1=O [Example 5-16, 1-ethyl-3-(1H-indol-6-yl)pyrazin-2(1H)-one]	170		
CCn1c2c(nc(-c3ccc(Cl)cc3)c1=O)CCCC2 [Example 9, 3-(4-chlorophenyl)-1-ethyl-5,6,7,8-tetrahydroquinoxalin-2(1H)-one]	110 to 113	343 % of ctrl	371 % of ctrl
CCCn1ccnc(-c2ccccc2)c1=O [Example 9-3, 3-phenyl-1-propylpyrazin-2(1H)-one]		145 % of ctrl	182 % of ctrl
CC(C)Cn1ccnc(-c2ccc(Cl)cc2)c1=O [Example 9-7, 3-(4-chlorophenyl)-1-isobutylpyrazin-2(1H)-one]		140 % of ctrl	338 % of ctrl
O=c1c(-c2ccc(Cl)cc2)nccn1CC1CC1 [Example 9-8, 3-(4-chlorophenyl)-1-(cyclopropylmethyl)pyrazin-2(1H)-one]		172 % of ctrl	333 % of ctrl
